As a reminder, the IC50 is the concentration that inhibits the measured activity by half. By Kd is commonly meant the free concentration of one partner at which half of the binding sites on the other are occupied at equilibrium, for simple one-to-one binding. Lower therefore signals a tighter complex.

The text below walks through data of paper PMC4273984 (ACS Chemical Biology, 2014).

One assay concerns the target BrdT (Homo sapiens, UniProt Q58F21). Nature of the assay: Protein-observed 19F NMR, 5FW-BrdT. The format is binding. As to conditions: resonance perturbation in slow exchange.
A further assay has as its system Brd4. The settings on record: BET bromodomain inhibition; cited from earlier work.
A further assay concerns the target 3FY-Brd4(1) (Homo sapiens, UniProt O60885). The experiment in a line: Protein-observed 19F NMR. The format is binding.
In the next assay the target is 5FW-Brd4(1) (Homo sapiens, UniProt O60885). The experiment in a line: Protein-observed 19F NMR. In kind it is binding. The settings on record: W81 resonance perturbation.
Another assay concerns the target Brd4(1) (Homo sapiens, UniProt O60885). The settings on record: fluorescence anisotropy or TR-FRET; cited from earlier work.

With `CC[C@@H]1C(=O)N(C)c2cnc(Nc3ccc(C(=O)NC4CCN(C)CC4)cc3OC)nc2N1C1CCCC1` [BI2536], the “binding to BrdT by PrOF NMR” value on BrdT is “bind to BrdT”.
`Cc1cnc(Nc2ccc(OCCN3CCCC3)cc2)nc1Nc1cccc(S(=O)(=O)NC(C)(C)C)c1` [TG101348]: the IC50 in the assay on Brd4 was […].
Regarding `CC(=O)Nc1ccc(O)cc1` [acetaminophen], the Kd at 3FY-Brd4(1) is 290 ± 40 µM; at 5FW-Brd4(1) it was 230 ± 30 µM. Besides, the “affinity for Brd4(1)” value on Brd4(1) is on record as “too weak”.
